Data on four molecules can be found in ChEMBL document CHEMBL1142149, “In vitro activities of the lipopeptides palmitoyl (Pal)-Lys-Lys-NH(2) and Pal-Lys-Lys alone and in combination with antimicrobial agents against multiresistant gram-positive cocci” (2007).

The test system of test [1] is Staphylococcus aureus. The test is described as follows: Antimicrobial activity against methicillin-susceptible Staphylococcus aureus ATCC 29213. The format is functional. The following applies: for MIC50 / MIC90: Staphylococcus aureus, ATCC 29213.
A further test deals with Prescottella equi. The test is described as follows: Antimicrobial activity against Rhodococcus equi ATCC 6939. It is filed as functional. The settings on record: for MIC50 / MIC90: Rhodococcus (subgen. Prescottella) equi, ATCC 6939.
In test [2] the test system is Enterococcus faecalis. The test is described as follows: Antimicrobial activity against vancomycin-resistant Enterococcus faecalis ATCC 51299. It is filed as functional. The following applies: for MIC50 / MIC90: Enterococcus faecalis, ATCC 51299.
In test [3] the test system is Erythrocyte. The test is described as follows: Effect on hemolytic activity in human RBC above 50 mg/liter. The format is functional, cell-based.
The subject of test [4] is Enterococcus faecalis. The test is described as follows: Antimicrobial activity against vancomycin-susceptible Enterococcus faecalis ATCC 29212. The following applies: for MIC50 / MIC90: Enterococcus faecalis, ATCC 29212. It is filed as functional.
The subject of test [5] is Staphylococcus aureus. The test is described as follows: Antimicrobial activity against methicillin-resistant Staphylococcus aureus ATCC 43300. The format is functional. The settings on record: for MIC50 / MIC90: Staphylococcus aureus, ATCC 43300.
Another test has as its system Streptococcus pyogenes. The experiment in a line: Antimicrobial activity against Streptococcus pyogenes ATCC 19615. The format is functional. The following applies: for MIC50 / MIC90: Streptococcus pyogenes, ATCC 19615.
For test [6], the system named is Erythrocyte. The test is described as follows: Effect on hemolytic activity in human RBC above 20 mg/liter. It is filed as functional, cell-based.

Converted amounts (≈) assume the structure as drawn. The source made the active and inactive calls. The calls are words filed in the database; no cut-off is given here.

With `CCCCCCCCCCCCCCCC(=O)N[C@@H](CCCCN)C(=O)N[C@@H](CCCCN)C(=O)O`, the MBC50 against Staphylococcus aureus [1] worked out at 8 µg/mL (≈ 15.6 µM); in the test on Prescottella equi, 4 µg/mL (≈ 7.8 µM); against Enterococcus faecalis [4], 4 µg/mL (≈ 7.8 µM); in the test on Streptococcus pyogenes it was 2 µg/mL (≈ 3.9 µM). The MBC90 with Staphylococcus aureus [1] turned out to be 16 µg/mL (≈ 31.2 µM); in the test on Prescottella equi it was 16 µg/mL (≈ 31.2 µM); in the test with Enterococcus faecalis [2], 16 µg/mL (≈ 31.2 µM); in the test on Enterococcus faecalis [4] it was 8 µg/mL (≈ 15.6 µM); against Streptococcus pyogenes, 4 µg/mL (≈ 7.8 µM). For the same molecule, the MIC50 turned out to be 4 µg/mL (≈ 7.8 µM) with Staphylococcus aureus [1]; 2 µg/mL (≈ 3.9 µM) in the test with Prescottella equi; 2 µg/mL (≈ 3.9 µM) against Enterococcus faecalis [2]; 2 µg/mL (≈ 3.9 µM) against Enterococcus faecalis [4]; 4 µg/mL (≈ 7.8 µM) in the test on Staphylococcus aureus [5]; 1 µg/mL (≈ 1.95 µM) in the test with Streptococcus pyogenes. For the same molecule, the MIC90 came out at 8 µg/mL (≈ 15.6 µM) against Staphylococcus aureus [1]; 16 µg/mL (≈ 31.2 µM) in the test with Prescottella equi; 4 µg/mL (≈ 7.8 µM) against Enterococcus faecalis [2]; 4 µg/mL (≈ 7.8 µM) against Enterococcus faecalis [4]; 8 µg/mL (≈ 15.6 µM) against Staphylococcus aureus [5]; 2 µg/mL (≈ 3.9 µM) in the test with Streptococcus pyogenes. For the same molecule, in the test with Erythrocyte [3], the result was Active.
For `CCCCCCCCCCCCCCCC(=O)N[C@@H](CCCCN)C(=O)N[C@@H](CCCCN)C(N)=O`, the MBC50 in the test with Staphylococcus aureus [1] was determined as 8 µg/mL (≈ 15.6 µM); in the test with Prescottella equi, 8 µg/mL (≈ 15.6 µM); with Enterococcus faecalis [4], 4 µg/mL (≈ 7.82 µM); against Streptococcus pyogenes, 2 µg/mL (≈ 3.91 µM). Also, the MBC90 against Staphylococcus aureus [1] turned out to be 16 µg/mL (≈ 31.3 µM); with Prescottella equi it was 32 µg/mL (≈ 62.5 µM); against Enterococcus faecalis [2], 16 µg/mL (≈ 31.3 µM); in the test on Enterococcus faecalis [4] it was 8 µg/mL (≈ 15.6 µM); in the test on Streptococcus pyogenes, 4 µg/mL (≈ 7.82 µM). Further, the MIC50 is 4 µg/mL (≈ 7.82 µM) with Staphylococcus aureus [1]; 4 µg/mL (≈ 7.82 µM) with Prescottella equi; 2 µg/mL (≈ 3.91 µM) in the test on Enterococcus faecalis [2]; 2 µg/mL (≈ 3.91 µM) against Enterococcus faecalis [4]; 4 µg/mL (≈ 7.82 µM) with Staphylococcus aureus [5]; 1 µg/mL (≈ 1.95 µM) against Streptococcus pyogenes. The MIC90 against Staphylococcus aureus [1] is 8 µg/mL (≈ 15.6 µM); against Prescottella equi, 16 µg/mL (≈ 31.3 µM); against Enterococcus faecalis [2], 4 µg/mL (≈ 7.82 µM); in the test on Enterococcus faecalis [4], 4 µg/mL (≈ 7.82 µM); against Staphylococcus aureus [5], 8 µg/mL (≈ 15.6 µM); in the test on Streptococcus pyogenes, 2 µg/mL (≈ 3.91 µM). In addition, in the test with Erythrocyte [6], the result was Active.
Take `CC1(C)S[C@@H]2[C@H](NC(=O)[C@H](N)c3ccc(O)cc3)C(=O)N2[C@H]1C(=O)O` [AMOXICILLIN]: the MBC50 against Staphylococcus aureus [1] amounted to 8 µg/mL (≈ 21.9 µM); against Prescottella equi it was 8 µg/mL (≈ 21.9 µM); in the test with Enterococcus faecalis [2], 64 µg/mL (≈ 175 µM); against Enterococcus faecalis [4], 16 µg/mL (≈ 43.8 µM); with Staphylococcus aureus [5], 64 µg/mL (≈ 175 µM); in the test on Streptococcus pyogenes, 4 µg/mL (≈ 10.9 µM). For the same molecule, the MBC90 was 16 µg/mL (≈ 43.8 µM) with Staphylococcus aureus [1]; 32 µg/mL (≈ 87.6 µM) with Prescottella equi; 128 µg/mL (≈ 350 µM) in the test on Enterococcus faecalis [2]; 64 µg/mL (≈ 175 µM) against Enterococcus faecalis [4]; 256 µg/mL (≈ 701 µM) with Staphylococcus aureus [5]; 8 µg/mL (≈ 21.9 µM) against Streptococcus pyogenes. Also, the MIC50 turned out to be 1 µg/mL (≈ 2.74 µM) in the test with Staphylococcus aureus [1]; 1 µg/mL (≈ 2.74 µM) in the test with Prescottella equi; 16 µg/mL (≈ 43.8 µM) in the test with Enterococcus faecalis [2]; 4 µg/mL (≈ 10.9 µM) in the test on Enterococcus faecalis [4]; 32 µg/mL (≈ 87.6 µM) against Staphylococcus aureus [5]; 0.25 µg/mL (≈ 0.684 µM) in the test with Streptococcus pyogenes. The MIC90 was 4 µg/mL (≈ 10.9 µM) with Staphylococcus aureus [1]; 2 µg/mL (≈ 5.47 µM) in the test with Prescottella equi; 64 µg/mL (≈ 175 µM) with Enterococcus faecalis [2]; 16 µg/mL (≈ 43.8 µM) in the test with Enterococcus faecalis [4]; 128 µg/mL (≈ 350 µM) against Staphylococcus aureus [5]; 2 µg/mL (≈ 5.47 µM) against Streptococcus pyogenes.
As to `C[C@H]1c2cccc(O)c2C(=O)C2=C(O)[C@]3(O)C(=O)C(C(N)=O)=C(O)[C@@H](N(C)C)[C@@H]3[C@@H](O)[C@@H]21.O` [DOXYCYCLINE], the MBC50 against Staphylococcus aureus [1] is 8 µg/mL; against Prescottella equi, 32 µg/mL; with Enterococcus faecalis [4] it was 16 µg/mL; against Streptococcus pyogenes, 8 µg/mL. Also, the MBC90 turned out to be 32 µg/mL with Staphylococcus aureus [1], 128 µg/mL in the test with Prescottella equi, 64 µg/mL against Enterococcus faecalis [4] and 16 µg/mL in the test with Streptococcus pyogenes. Also, the MIC50 against Staphylococcus aureus [1] stood at 2 µg/mL; in the test with Prescottella equi, 1 µg/mL; against Enterococcus faecalis [2] it was 16 µg/mL; against Enterococcus faecalis [4], 4 µg/mL; against Staphylococcus aureus [5], 4 µg/mL; against Streptococcus pyogenes, 2 µg/mL. The MIC90 was found to be 8 µg/mL against Staphylococcus aureus [1]; 2 µg/mL against Prescottella equi; 64 µg/mL in the test with Enterococcus faecalis [2]; 32 µg/mL against Enterococcus faecalis [4]; 16 µg/mL with Staphylococcus aureus [5]; 8 µg/mL in the test with Streptococcus pyogenes.
